From US10265326B2, “Form C of avibactam sodium” (Sandoz AG, priority 2015, dated 2019)
“Also recorded” adds a separate entry of the source.

Columns and labels:
[1] = Gravimetric moisture sorption; format: physicochemical; conditions: relative humidity 0 to 60%, (25.0±0.1) °C
Experimental: Moisture sorption isotherms were recorded with an SPSx-1μ moisture sorption analyzer (ProUmid, Ulm). The measurement cycle was started at ambient relative humidity (RH) of 30% and first decreased to 3% RH and then to 0% RH. […] The time per step was set to a minimum of 2 hours and a maximum of 6 hours. If an equilibrium condition with a constant mass of ±0.01% within 1 hour was reached before the maximum time for all examined samples the sequential humidity step was applied before the maximum time of 6 hours. If no equilibrium was achieved the consecutive humidity step was applied after the maximum time of 6 hours. The temperature was 25±0.1° C.

[2] = Stress tests: open storage at room temperature over saturated salt solutions at different relative humidities, analysis by PXRD; format: physicochemical; conditions: for physical form found by PXRD after stress test: open storage
Experimental: Powder X-ray diffraction (PXRD) was performed with a PANalytical X'Pert PRO diffractometer equipped with a theta/theta coupled goniometer in transmission geometry, Cu-Kalpha1,2 radiation (wavelength 0.15419 nm) with a focusing mirror and a solid state PIXcel detector. Diffractograms were recorded at a tube voltage of 45 kV and a tube current of 40 mA, applying a stepsize of 0.013° 2-Theta with 40 s per step (255 channels) in the angular range of 2° to 40° 2-Theta at ambient conditions. A typical precision of the 2-Theta values is in the range of ±0.2° 2-Theta. Thus, the diffraction peak of substantially pure form C that appears for example at 6.5° 2-Theta can appear between 6.3 and 6.7° 2-Theta on most X-ray diffractometers under standard conditions.
Crystalline form C (prepared according to example 1 herein) was open stored at room temperature in desiccators over saturated salt solutions generating different relative humidities.

NC(=O)[C@@H]1CC[C@@H]2CN1C(=O)N2OS(=O)(=O)O.[Na] [form C, sodium salt of (1R,2S,5R)-7-oxo-6-sulfooxy-1,6-diazabicyclo[3.2.1]octane-2-carboxamide]
weight change, based on the weight of crystalline form C [1]: not more than 0.5% | relative humidity at or below which no transformation into any other physical form occurs [2]: ≤ 55% | physical form found by PXRD after stress test ([2]; 45% relative humidity (K2CO3), 9 days): substantially pure form C after 9 days and after | physical form found by PXRD after stress test ([2]; 45% relative humidity (K2CO3), 277 days): remains stable; also recorded: substantially pure form C after 9 days and after | physical form found by PXRD after stress test ([2]; 55% relative humidity (Ca(NO3)2 x 4H2O), 9 days): remains stable; also recorded: substantially pure form C after 9 days | physical form found by PXRD after stress test ([2]; 63% relative humidity (NaBr), 3 days): traces of form A detectable after 3 days | physical form found by PXRD after stress test ([2]; 75% relative humidity (NaCl), 3 days): mainly form A with traces of form C after | physical form found by PXRD after stress test ([2]; 86% relative humidity (KCl), one day): form A after one day
